Measured values as given in article PMC4114983, “The “Gate Keeper” Role of Trp222 Determines the Enantiopreference of Diketoreductase toward 2-Chloro-1-Phenylethanone” (PLoS ONE, 2014).
Where two headings read alike, the source gives them in different places.

Experiments:
[1] = biological target: T1, WT-DKR; diketoreductase (DKR) (Acinetobacter baylyi, UniProt B1P3E1, W222M); assay: NADH oxidation, absorbance; assay type: biochemical; conditions: 0.15 mM NADH constant, potassium phosphate pH 6.0; average of two measurements
T1 construct: full-length in pET22b(+), E. coli BL21(DE3); DEAE and Sephadex G-100 purified; homodimer, 283 residues per subunit
From the text: (§1) NADH oxidation, absorbance on WT-DKR; diketoreductase (DKR)

diketoreductase (DKR) [2] = biological target: T2, diketoreductase (DKR) (Acinetobacter baylyi, UniProt B1P3E1, W222Y); assay: NADH oxidation, absorbance; assay type: biochemical; conditions: 0.15 mM NADH constant, potassium phosphate pH 6.0; average of two measurements
T2 construct: full-length in pET22b(+), E. coli BL21(DE3); DEAE and Sephadex G-100 purified; homodimer, 283 residues per subunit
From the text: as §1

[3] = biological target: T3, WT-DKR; diketoreductase (DKR) (Acinetobacter baylyi, UniProt B1P3E1, W222F); assay: NADH oxidation, absorbance; assay type: biochemical; conditions: 0.15 mM NADH constant, potassium phosphate pH 6.0; average of two measurements
T3 construct: full-length in pET22b(+), E. coli BL21(DE3); DEAE and Sephadex G-100 purified; homodimer, 283 residues per subunit
From the text: as §1

diketoreductase (DKR) [4] = biological target: T4, diketoreductase (DKR) (Acinetobacter baylyi, UniProt B1P3E1, W222L); assay: NADH oxidation, absorbance; assay type: biochemical; conditions: 0.15 mM NADH constant, potassium phosphate pH 6.0; average of two measurements
T4 construct: full-length in pET22b(+), E. coli BL21(DE3); DEAE and Sephadex G-100 purified; homodimer, 283 residues per subunit
From the text: as §1

diketoreductase (DKR) [5] = biological target: T5, diketoreductase (DKR) (Acinetobacter baylyi, UniProt B1P3E1, W222V); assay: NADH oxidation, absorbance; assay type: biochemical; conditions: 0.15 mM NADH constant, potassium phosphate pH 6.0; average of two measurements
T5 construct: full-length in pET22b(+), E. coli BL21(DE3); DEAE and Sephadex G-100 purified; homodimer, 283 residues per subunit
From the text: as §1

[6] = biological target: T6, WT-DKR; diketoreductase (DKR) (Acinetobacter baylyi, UniProt B1P3E1); assay: NADH oxidation, absorbance; assay type: biochemical; conditions: 0.15 mM NADH constant, potassium phosphate pH 6.0; average of two measurements
T6 construct: full-length in pET22b(+), E. coli BL21(DE3); DEAE and Sephadex G-100 purified; homodimer, 283 residues per subunit
From the text: as §1
Target sequence in this assay (B1P3E1 entry or part of it): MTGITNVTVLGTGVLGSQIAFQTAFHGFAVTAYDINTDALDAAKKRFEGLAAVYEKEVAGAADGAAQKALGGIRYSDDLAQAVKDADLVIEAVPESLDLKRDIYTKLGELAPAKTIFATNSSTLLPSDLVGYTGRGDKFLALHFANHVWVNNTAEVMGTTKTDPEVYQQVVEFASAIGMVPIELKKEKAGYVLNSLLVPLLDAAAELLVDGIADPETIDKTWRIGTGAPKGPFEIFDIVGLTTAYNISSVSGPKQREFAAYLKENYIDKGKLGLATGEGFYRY

diketoreductase (DKR) [7] = biological target: T7, diketoreductase (DKR) (Acinetobacter baylyi, UniProt B1P3E1, W222M); assay: intrinsic Trp fluorescence quenching, quadratic fit; assay type: binding
T7 construct: full-length in pET22b(+), E. coli BL21(DE3); DEAE and Sephadex G-100 purified; homodimer, 283 residues per subunit
From the text: (§2) intrinsic Trp fluorescence quenching, quadratic fit on WT-DKR; diketoreductase (DKR)

diketoreductase (DKR) [8] = biological target: T2, diketoreductase (DKR); assay: as above; assay type: binding
From the text: as §2

diketoreductase (DKR) [9] = biological target: T8, diketoreductase (DKR) (Acinetobacter baylyi, UniProt B1P3E1, W222F); assay: as above; assay type: binding
T8 construct: full-length in pET22b(+), E. coli BL21(DE3); DEAE and Sephadex G-100 purified; homodimer, 283 residues per subunit
From the text: as §2

diketoreductase (DKR) [10] = biological target: T5, diketoreductase (DKR); assay: as above; assay type: binding
From the text: as §2

[11] = biological target: T6, WT-DKR; diketoreductase (DKR); assay: as above; assay type: binding
From the text: as §2
Target sequence in this assay (B1P3E1 entry or part of it W222L): as the sequence (B1P3E1 entry or part of it) above

[12] = biological target: T6, WT-DKR; diketoreductase (DKR); assay: as above; assay type: binding; remark: listed apart in the source
From the text: as §2
Target sequence in this assay (B1P3E1 entry or part of it): as above

T5 sequence (B1P3E1 entry or part of it W222V): as the sequence (B1P3E1 entry or part of it) above
T2 sequence (B1P3E1 entry or part of it W222Y): as the sequence (B1P3E1 entry or part of it) above
T8 sequence (B1P3E1 entry or part of it W222F): as the sequence (B1P3E1 entry or part of it) above
T4 sequence (B1P3E1 entry or part of it W222L): as the sequence (B1P3E1 entry or part of it) above
T1 sequence (B1P3E1 entry or part of it W222M): as the sequence (B1P3E1 entry or part of it) above
T3 sequence (B1P3E1 entry or part of it W222F): as the sequence (B1P3E1 entry or part of it) above
T7 sequence (B1P3E1 entry or part of it W222M): as the sequence (B1P3E1 entry or part of it) above

SMILES: O=C(CCl)c1ccccc1 [2-chloro-1-phenylethanone]
- Km [1]: 2800 µM
- Km (diketoreductase (DKR) [2]): 2510 µM
- Km [3]: 4180 µM
- Km (diketoreductase (DKR) [4]): 3160 µM
- Km (diketoreductase (DKR) [5]): 302 µM
- Km [6]: 1130 µM
- Kd (diketoreductase (DKR) [7]): 457 µM
- Kd (diketoreductase (DKR) [8]): 455 µM
- Kd (diketoreductase (DKR) [9]): 484 µM
- Kd (diketoreductase (DKR) [10]): 507 µM
- Kd [11]: 458 µM
- Kd [12]: 460 µM
